≈ marks a conversion by molar mass, not a printed value.
What was measured:
[1] = Equilibrium solubility determination in liquid vehicle (HPLC); assay type: physicochemical; settings: 40 °C, thermodynamic from solid; guaifenesin in liquid vehicle, 40° for two days, n=3
Procedure: The objective of this example was to determine the […] using “HPLC protocol”. About 500 mg of guaifenesin was added into 20 ml of a liquid vehicle. The suspend solution were then shaken and then placed at 40° for two days. The supernatant was then filtered off using a syringe with a 0.45 μm filter, and diluted so that the absorbencies fell within the UV (25-fold dilution). The diluted clear solutions were equilibrium solubility samples, termed as “samples” in the “HPLC protocol’. The “HPLC protocol” was then followed (See below).
A 20 mL of stock solution of the drug was prepared in DI water at a concentration of 1 mg/mL. The solution was left at room temperature for 5 min to get the drug dissolved. The stock solution was appropriately diluted to get several concentrations ranging from 0.1 mg/mL to 1 mg/mL (See FIG. 1). Samples were prepared by appropriately diluting the samples collected using “USP dissolution protocol” to ensure that the drug concentration level falls within the range of the standard curve (e.g., 2× dilution).
HPLC was prepared by first washing the column with the wash buffer (acetonitrile:water 50:50 (v/v)) for 10 min. […]

[2] = cited from earlier work

- solubility thermodynamic at 2 days [1]: 9590 ± 340 µg/mL (≈ 48.4 mM)
Structure (SMILES): COc1ccccc1OCC(O)CO (centres unmarked) [Guaifenesin, 3-(2-methoxyphenoxy)-1,2-propanediol]
- water solubility [2]: highly water soluble

Reference: patent US20130149383A1, “SUSTAINED RELEASE PARTICLE FORMULATIONS OF GUAIFENESIN” (priority 2011, published 2013)
